For 31 compounds, IC50 results are on record in patent US20100105655A1, “NOVEL COMPOUNDS 515” (ASTRAZENECA AB, priority 2008, published 2010).

The target of the first assay is T1, IGFR kinase (Homo sapiens, UniProt P08069).
T1 construct: purchased Millipore
T1 sequence (P08069 31-1367): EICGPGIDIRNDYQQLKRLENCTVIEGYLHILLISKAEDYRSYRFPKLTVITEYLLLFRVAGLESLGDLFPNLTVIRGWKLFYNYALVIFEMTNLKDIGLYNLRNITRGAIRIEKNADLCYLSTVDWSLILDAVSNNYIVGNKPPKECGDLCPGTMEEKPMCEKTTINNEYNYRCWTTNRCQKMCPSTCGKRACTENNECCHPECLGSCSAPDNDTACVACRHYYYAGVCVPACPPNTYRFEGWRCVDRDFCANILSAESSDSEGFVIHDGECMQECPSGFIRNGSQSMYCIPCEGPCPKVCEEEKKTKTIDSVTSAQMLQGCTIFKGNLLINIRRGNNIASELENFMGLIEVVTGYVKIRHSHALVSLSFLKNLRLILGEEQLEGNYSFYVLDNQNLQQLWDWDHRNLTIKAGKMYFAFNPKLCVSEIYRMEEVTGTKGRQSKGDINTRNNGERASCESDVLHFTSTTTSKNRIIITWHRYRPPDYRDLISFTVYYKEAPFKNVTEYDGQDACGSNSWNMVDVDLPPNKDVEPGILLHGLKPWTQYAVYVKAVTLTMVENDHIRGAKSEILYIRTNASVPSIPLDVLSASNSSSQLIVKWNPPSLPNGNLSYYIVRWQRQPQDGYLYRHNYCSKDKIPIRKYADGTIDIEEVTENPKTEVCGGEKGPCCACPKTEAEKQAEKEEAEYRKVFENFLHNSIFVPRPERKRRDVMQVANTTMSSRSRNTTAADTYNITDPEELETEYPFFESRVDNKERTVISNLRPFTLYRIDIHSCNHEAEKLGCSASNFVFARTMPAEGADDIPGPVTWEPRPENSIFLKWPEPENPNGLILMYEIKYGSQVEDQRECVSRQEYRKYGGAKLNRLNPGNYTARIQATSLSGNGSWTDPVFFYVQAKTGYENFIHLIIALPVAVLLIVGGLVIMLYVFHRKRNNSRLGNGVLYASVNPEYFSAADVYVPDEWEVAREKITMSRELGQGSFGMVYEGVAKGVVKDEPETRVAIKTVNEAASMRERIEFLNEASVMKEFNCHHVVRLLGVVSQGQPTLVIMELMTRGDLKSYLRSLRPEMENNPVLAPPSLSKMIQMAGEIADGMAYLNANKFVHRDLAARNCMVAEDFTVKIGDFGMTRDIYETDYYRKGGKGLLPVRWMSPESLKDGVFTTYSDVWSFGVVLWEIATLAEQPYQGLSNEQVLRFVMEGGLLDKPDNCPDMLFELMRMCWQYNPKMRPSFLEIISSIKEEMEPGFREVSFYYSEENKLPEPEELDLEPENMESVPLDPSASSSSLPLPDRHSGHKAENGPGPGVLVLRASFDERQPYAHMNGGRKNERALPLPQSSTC
As to the kind of experiment: Enzyme assay (c), IGFR kinase, Caliper LabChip. The format is biochemical.
Conditions: not given
`COc1cc(N2CC3CNCC(C2)O3)ccc1Nc1ncc(Cl)c(-c2cnc3c(F)cccn23)n1` [Example 183, 5-chloro-4-(8-fluoroimidazo[1,2-a]pyridin-3-yl)-N-[2-methoxy-4-(9-oxa-3,7-diazabicyclo[3.3.1]nonan-7-yl)phenyl]pyrimidin-2-amine] displayed an IC50 of 0.007 µM.

The assay is the same for the next values; noted with them: 30 nM IGFR kinase, 6 uM ATP, 3 uM peptide mix; read-out: IGFR IC50.
As to `COc1cc(CC(CO)CO)ccc1Nc1ncc(Cl)c(-c2cnn3ccccc23)n1` [Example 190, 2-[[4-[(5-chloro-4-pyrazolo[1,5-a]pyridin-3-yl-pyrimidin-2-yl)amino]-3-methoxy-phenyl]methyl]propane-1,3-diol], the IC50 came to 0.002 µM.
Same read-out and setting: the same measure for `COc1cc(N2CCC(O)CC2)ccc1Nc1ncc(F)c(-c2cnc3ccccn23)n1` [Example 111, 1-[4-[(5-fluoro-4-imidazo[1,2-a]pyridin-3-yl-pyrimidin-2-yl)amino]-3-methoxy-phenyl]piperidin-4-ol]: 0.049 µM; for `COc1cc(N2CCCOCC2)ccc1Nc1ncc(Cl)c(-c2cnc3ccccn23)n1` [Example 3.48, 5-chloro-4-imidazo[1,2-a]pyridin-3-yl-N-[2-methoxy-4-(1,4-oxazepan-4-yl)phenyl]pyrimidin-2-amine]: 0.025 µM.
Still for that read-out and setting: the same measure for `COc1cc(N2CCN(C[C@H](C)O)CC2)ccc1Nc1ncc(C)c(-c2cnc3ccccn23)n1` [Example 104, (2S)-1-[4-[4-[(4-imidazo[1,2-a]pyridin-3-yl-5-methyl-pyrimidin-2-yl)amino]-3-methoxy-phenyl]piperazin-1-yl]propan-2-ol]: 0.029 µM; for `COc1cc(C(=O)N2CCN(CCO)CC2)ccc1Nc1ncc(Cl)c(-c2cnc3ccccn23)n1` [Example 32, [4-[(5-chloro-4-imidazo[1,2-a]pyridin-3-yl-pyrimidin-2-yl)amino]-3-methoxy-phenyl]-[4-(2-hydroxyethyl)piperazin-1-yl]methanone]: 0.019 µM; for `COc1cc(N2CCN(C(=O)[C@@H](C)O)CC2)ccc1Nc1ncc(Cl)c(-c2cnn3ccccc23)n1` [Example 131, (2R)-1-[4-[4-[(5-chloro-4-pyrazolo[1,5-a]pyridin-3-yl-pyrimidin-2-yl)amino]-3-methoxy-phenyl]piperazin-1-yl]-2-hydroxy-propan-1-one]: 0.003 µM.
Regarding `COc1cc(CN[C@H](C)CO)ccc1Nc1ncc(Cl)c(-c2cnc3ccccn23)n1` [Example 21.15, (2R)-2-[[4-[(5-chloro-4-imidazo[1,2-a]pyridin-3-yl-pyrimidin-2-yl)amino]-3-methoxy-phenyl]methylamino]propan-1-ol], the 50% inhibitory concentration (IC50) was determined as 0.026 µM.
In the case of `COc1cc(C(CO)CO)ccc1Nc1ncc(Cl)c(-c2cnc3c(F)cccn23)n1` [Example 181, 2-[4-[[5-chloro-4-(8-fluoroimidazo[1,2-a]pyridin-3-yl)pyrimidin-2-yl]amino]-3-methoxy-phenyl]propane-1,3-diol], the IC50 is 0.021 µM.
In the case of `COc1cc(CC(=O)NC2CCNC2)ccc1Nc1ncc(Cl)c(-c2cnc3ccccn23)n1` (stereo not shown) [Example 35, 2-[4-[(5-chloro-4-imidazo[1,2-a]pyridin-3-yl-pyrimidin-2-yl)amino]-3-methoxy-phenyl]-N-pyrrolidin-3-yl-acetamide], the IC50 turned out to be 0.021 µM.
As for `COc1cc(N2CCN(C[C@@H](C)O)CC2)ccc1Nc1ncc(F)c(-c2cnc3ccccn23)n1` [Example 90, (2R)-1-[4-[4-[(5-fluoro-4-imidazo[1,2-a]pyridin-3-yl-pyrimidin-2-yl)amino]-3-methoxy-phenyl]piperazin-1-yl]propan-2-ol], the IC50 was 0.037 µM.
On the same count and under the same terms, then `COc1ccc(N2CCC(OC)CC2)cc1Nc1ncc(F)c(-c2cnc3ccccn23)n1` [Example 77, 5-fluoro-4-imidazo[1,2-a]pyridin-3-yl-N-[2-methoxy-5-(4-methoxy-1-piperidyl)phenyl]pyrimidin-2-amine], with 0.184 µM; and `COc1cc(C2CCNC(C)C2)ccc1Nc1ncc(Cl)c(-c2cnc3ccccn23)n1` (stereo not shown) [Example 59.2, 5-chloro-4-imidazo[1,2-a]pyridin-3-yl-N-[2-methoxy-4-(2-methyl-4-piperidyl)phenyl]pyrimidin-2-amine], with 0.007 µM.
Same read-out and setting: the same measure for `COc1cc(N2CCN(C(C)=O)CC2)ccc1Nc1ncc(Cl)c(-c2cnc3ccc(Br)cn23)n1` [Example 126.1, 1-[4-[4-[[4-(6-bromoimidazo[1,2-a]pyridin-3-yl)-5-chloropyrimidin-2-yl]amino]-3-methoxyphenyl]piperazin-1-yl]ethanone]: 0.009 µM.
Still for that read-out and setting: then `COc1cc(N2CCN(C)CC2)ccc1Nc1ncc(Br)c(-c2cnc3ccccn23)n1` [Example 121, 5-bromo-4-imidazo[1,2-a]pyridin-3-yl-N-[2-methoxy-4-(4-methylpiperazin-1-yl)phenyl]pyrimidin-2-amine], with 0.015 µM; and `CC(=O)N1CCN(c2cc(C)c(Nc3ncc(Cl)c(-c4cnc5ccccn45)n3)cc2F)CC1` [Example 3.33, 1-[4-[4-[(5-chloro-4-imidazo[1,2-a]pyridin-3-yl-pyrimidin-2-yl)amino]-2-fluoro-5-methyl-phenyl]piperazin-1-yl]ethanone], with 0.016 µM; and `COc1ccc(N2CC3CNCC(C2)O3)cc1Nc1ncc(Cl)c(-c2cnn3ccccc23)n1` [Example 189, 5-chloro-N-[2-methoxy-5-(9-oxa-3,7-diazabicyclo[3.3.1]nonan-7-yl)phenyl]-4-yrazolo[1,5-a]pyridin-3-yl-pyrimidin-2-amine], with 0.095 µM.
Take `COc1cc(N2CCN(S(=O)(=O)N(C)C)CC2)ccc1Nc1ncc(F)c(-c2cnc3ccccn23)n1` [Example 74, 4-[4-[(5-fluoro-4-imidazo[1,2-a]pyridin-3-yl-pyrimidin-2-yl)amino]-3-methoxy-phenyl]-N,N-dimethyl-piperazine-1-sulfonamide]: the IC50 came to 0.042 µM.
`COc1cc(OC[C@H]2CCCN2)ccc1Nc1ncc(OC)c(-c2cnc3ccccn23)n1` [Example 96, 4-imidazo[1,2-a]pyridin-3-yl-5-methoxy-N-[2-methoxy-4-[[(2R)-pyrrolidin-2-yl]methoxy]phenyl]pyrimidin-2-amine]: the concentration for half-maximal inhibition (IC50) came out at 0.127 µM.
In the case of `COc1cc(N2CC3CNCC(C2)O3)ccc1Nc1ncc(Cl)c(-c2cnn3ccccc23)n1` [Example 149, 5-chloro-N-[2-methoxy-4-(9-oxa-3,7-diazabicyclo[3.3.1]nonan-7-yl)phenyl]-4-pyrazolo[1,5-a]pyridin-3-yl-pyrimidin-2-amine], the half-inhibitory concentration (IC50) turned out to be 0.007 µM.
As to `COc1cc(N2C[C@@H](C)N(C(C)=O)C[C@@H]2C)ccc1Nc1ncc(Cl)c(-c2cnc3ccccn23)n1` [Example 3.35, 1-[(2R,5S)-4-[4-[(5-chloro-4-imidazo[1,2-a]pyridin-3-yl-pyrimidin-2-yl)amino]-3-methoxy-phenyl]-2,5-dimethyl-piperazin-1-yl]ethanone], the concentration for half-maximal inhibition (IC50) was 0.01 µM.
The same measure, in the same setting: the same measure for `COc1cc(N2CCCC2)ccc1Nc1ncc(Cl)c(-c2cnc3ccccn23)n1` [Example 3.44, 5-chloro-4-imidazo[1,2-a]pyridin-3-yl-N-(2-methoxy-4-pyrrolidin-1-yl-phenyl)pyrimidin-2-amine]: 0.0003 µM.
The same measure, in the same setting: then `COc1cc(N2CCN(CC(C)(C)O)CC2)ccc1Nc1ncc(C)c(-c2cnc3ccccn23)n1` [Example 106, 1-[4-[4-[(4-imidazo[1,2-a]pyridin-3-yl-5-methyl-pyrimidin-2-yl)amino]-3-methoxy-phenyl]piperazin-1-yl]-2-methyl-propan-2-ol], with 0.028 µM; and `COc1cc(N2CCN(CCO)CC2)ccc1Nc1ncc(OC)c(-c2cnc3ccccn23)n1` [Example 95, 2-[4-[4-[(4-imidazo[1,2-a]pyridin-3-yl-5-methoxy-pyrimidin-2-yl)amino]-3-methoxy-phenyl]piperazin-1-yl]ethanol], with 0.06 µM; and `COc1cc(N(C)CCN(C)C(=O)CO)ccc1Nc1ncc(Cl)c(-c2cnc3c(F)cccn23)n1` [Example 220, N-[2-[4-[[5-chloro-4-(8-fluoroimidazo[1,2-a]pyridin-3-yl)pyrimidin-2-yl]amino]-3-methoxy-N-methyl-anilino]ethyl]-2-hydroxy-N-methyl-acetamide], with 0.005 µM.
Still for that read-out and setting: then `COc1cc(N2CCN(C(C)(C)CO)CC2)ccc1Nc1ncc(C)c(-c2cnn3ccccc23)n1` [Example 231, 2-[4-[3-methoxy-4-[(5-methyl-4-pyrazolo[1,5-a]pyridin-3-yl-pyrimidin-2-yl)amino]phenyl]piperazin-1-yl]-2-methyl-propan-1-ol], with 0.02 µM.
Take `COc1cc(OC[C@@H]2CCCN2)ccc1Nc1ncc(Cl)c(-c2cnc3ccccn23)n1` [Example 6.2, 5-chloro-4-imidazo[1,2-a]pyridin-3-yl-N-[2-methoxy-4-[[(2S)-pyrrolidin-2-yl]methoxy]phenyl]pyrimidin-2-amine]: the IC50 is 0.014 µM.
On the same count and under the same terms, then `COc1cc(N2CCN(C(=O)CO)CC2)ccc1Nc1ncc(Cl)c(-c2cnc3c(F)cccn23)n1` [Example 180, 1-[4-[4-[[5-chloro-4-(8-fluoroimidazo[1,2-a]pyridin-3-yl)pyrimidin-2-yl]amino]-3-methoxy-phenyl]piperazin-1-yl]-2-hydroxy-ethanone], with 0.025 µM.
As for `COc1cc(N2CCN(C[C@@H](O)CO)CC2)ccc1Nc1ncc(Cl)c(-c2cnc3ccccn23)n1` [Example 53, (2R)-3-[4-[4-[(5-chloro-4-imidazo[1,2-a]pyridin-3-yl-pyrimidin-2-yl)amino]-3-methoxy-phenyl]piperazin-1-yl]propane-1,2-diol], the IC50 worked out at 0.008 µM.
The same measure, in the same setting: the same measure for `COc1cc(N2CC3CN(C)CC(C2)O3)ccc1Nc1ncc(Cl)c(-c2cnc3c(F)cccn23)n1` [Example 203, 5-chloro-4-(8-fluoroimidazo[1,2-a]pyridin-3-yl)-N-[2-methoxy-4-(7-methyl-9-oxa-3,7-diazabicyclo[3.3.1]nonan-3-yl)phenyl]pyrimidin-2-amine]: 0.009 µM.
On the same count and under the same terms, the same measure for `COc1cc(N2CCN(C[C@H](O)CO)CC2)ccc1Nc1ncc(C)c(-c2cnc3ccccn23)n1` [Example 268, (2S)-3-[4-[4-[(4-imidazo[1,2-a]pyridin-3-yl-5-methyl-pyrimidin-2-yl)amino]-3-methoxy-phenyl]piperazin-1-yl]propane-1,2-diol]: 0.023 µM.
